Test results: patent publication US20210392936A1, “Nutritional composition comprising urea and non-digestible oligosaccharides” (N.V. Nutricia, priority 2018, published 2021)

What was measured:
[1] = test system: urease positive Bifidobacteria (mix of Bifidobacterium longum subspecies infantis strains and Bifidobacterium bifidum ATCC29521); experiment: Fermenter growth of urease positive Bifidobacteria mix with or without urea and CO2 (Example 3, first experiment); assay type: cell-based; settings: urea N source (100 mM), lactose 20 g/l
From the text: (§1) The following strains were used: Bifidobacterium breve DSM20213, which is the type strain of B. breve and urease negative. A mix of Bifidobacterium longum subspecies infantis strains was used that were predicted to be urease positive, to increase the chance of having a urease activity. […] Strains used were a mix of Bifidobacterium longum spp infantis DSM20088 (type strain), B. infantis M-63 (Morinaga), B. longum subspecies infantis ATCC 17930, B. longum subspecies infantis DN_163_0041 isolated from the faeces of a bottle-fed infants, B. infantis DN_163_0046 and B. longum ssp. infantis R-0033 (Lallemand) and Bifidobacterium bifidum ATCC29521 (type strain).
(§2) g/l yeast extract, 0.75 g/l tryptone, 3 g/l KH2PO4, 4.8 g/l K2HPO4, 0.2 g/l MgSO4, 0.5 g Cysteine.HCl, 15 g Sodium Propionate, supplemented with 10 ml vitamin mix and 10 ml metal mix from 100× concentrates (Teusink et al. 2005, AEM, Vol 71 (issue 11) p. 7253-7262) and 100 μM NiCl. The pH of this medium is 6.8 (+/−0.05). As carbon source 20 g/l lactose was used and when appropriate urea was added to a final concentration of 100 mM. The medium was sterilized using filtration step with a 0.22 μm filter. […] Precultures of bifidobacterium strains were grown statically in absence of urea at 37° C. in an anaerobic atmosphere (90% N2, 5% Hz, 5% CO2).
(§3) Inoculation occurred from a single colonies grown on TOS-mupirocin agar plates as known in the art. The main cultures (in the fermenters) were performed with 1×BASE supplemented with 0, 15, 50 or 100 mM urea (if applicable). During fermentation the headspace was flushed with N2 gas or with an anaerobic gas mixture ((90% N2, 5% H2, 5% CO2). CO2 is known to be needed for the growth of most Bifidobacteria in the absence of substrates that can liberate CO2.
(§4) The main fermenters were inoculated with the preculture of B. breve at an OD600 of 0.05. For the B. longum subspecies infantis and bifidum mix the individual precultures were first mixed in an equal amount based on OD600 and subsequently also inoculated with a start OD600 of 0.05. The medium was stirred at 360 rpm by magnet stirring bar. The pH was controlled at 6.2 by addition of 5M NaOH. All growth (precultures, main fermenters, agar plates) experiments were performed at 37° C. Growth was monitored in time by off-line OD600 measurement. Samples were diluted before measurement where appropriate.

[2] = test system: B. longum spp infantis M-63, B. longum subspecies infantis ATCC 17930, B. longum ssp. infantis R-0033 (single strains); experiment: Growth of single urease positive strains with urea and a carbon source without CO2 and other nitrogen source; assay type: cell-based, Bifidobacterium longum subspecies infantis; settings: presence of urea and a carbon source, absence of CO2 and other nitrogen source; data not shown
From the text: as §1

[3] = test system: Bifidobacterium longum subspecies infantis ATCC 17930 (urease positive); experiment: Growth of strain ATCC 17930 with or without urea, CO2 and 2'FL as carbon source (Example 4); assay type: cell-based; settings: 10 mM urea
Protocol: In this experiment the urease positive strain Bifidobacterium longum subspecies infantis ATCC 17930, was used. The same growth media and experimental set up as in the second experiment described in example 3 was used, except that instead of scGOS/IcFOS, 2′-fucosyllactose (Jennewein Biotechnologie GmbH) was used as a carbon and energy source. As a nitrogen source tryptone was added (3.0 g/l), or no urea or 10 mM urea (final concentration), corresponding to 0, or 0.6 g/l urea.

[4] = test system: urease positive B. longum ssp. infantis strains M-63, ATCC17930, DN_163_0041 and R-0033; experiment: Growth with urea concentrations or tryptone as nitrogen source, scGOS/IcFOS as carbon source (Example 3, second experiment), urease positive; assay type: cell-based, Bifidobacterium longum ssp. infantis; settings: scGOS/IcFOS 20 g/l
Protocol: Fermenters were sterilized containing 80 ml demi water and 20 ml of a 20 wt % solution of scGOS/IcFOS in a 9:1 wt/wt ratio. As a source of scGOS VivinalGOS (DOMO, Friesland Campina) was used, and as a source of IcFOS, RaftilinHP was used (Orafti). After sterilization 100 ml of sterilized 2× concentrated BASE medium was added. The final concentration of scGOS/IcFOS was 2 wt % based on volume, and this served as the carbon source. As a nitrogen source tryptone was added (3.0 g/l), or 0, 10, 50 or 100 mM urea (final concentration), corresponding to 0, 0.6 g/l, 3 g/l and 6 g/l. Precultures were grown in static tubes in 1×BASE supplemented with 3.0 g/l tryptone and 2 wt % scGOS/IcFOS under an anaerobic gas atmosphere (90% N2, 5% Hz, 5% CO2).
as §3, §4
A second experiment was performed. Here the growth with different concentrations urea as nitrogen (and CO2) source was compared to Tryptone (from Oxoid) as nitrogen source. In this case only B. longum ssp. infantis strains M-63, ATCC17930, DN_163_0041 and R-0033 were used and tryptone was removed from the basal medium. Where applicable tryptone or urea were added as nitrogen source to final concentrations of 3 g/l and 10, 50 or 100 mM, respectively. Instead of lactose as carbon source scGOS/IcFOS in a 9:1 wt/wt ratio was used in a final concentration of 20 g/l. As a source of scGOS VivinalGOS (FrieslandCampina) was used, and RaftininHP (Orafti) was used as IcFOS source.

[5] = test system: Bifidobacterium breve DSM20213 (urease negative); experiment: Fermenter growth of urease negative Bifidobacterium with or without urea and CO2 (Example 3, first experiment); assay type: cell-based; settings: urea N source (100 mM), lactose 20 g/l
From the text: as §1, §2, §3, §4

[6] = test system: urease negative Bifidobacteria (Bifidobacterium breve DSM20213); experiment: Growth with urea or tryptone as nitrogen source, scGOS/IcFOS as carbon source (Example 3, second experiment), urease negative; assay type: cell-based; settings: CO2 gas, 50 mM urea, scGOS/IcFOS 20 g/l

**Q.** What does the source list for `NC(N)=O` [urea]?
**A.** Growth expressed as OD600 ([1]; CO2 gas, 60 min): 0.099 OD600; Growth expressed as OD600 ([1]; CO2 gas, 180 min): 0.168 OD600; Growth expressed as OD600 ([1]; CO2 gas, 360 min): 0.680 OD600; Growth expressed as OD600 ([1]; CO2 gas, 660 min): 3.940 OD600; Growth expressed as OD600 ([1]; CO2 gas, 23 h): 3.850 OD600; Growth expressed as OD600 ([1]; N2 gas, 60 min): 0.095 OD600; Growth expressed as OD600 ([1]; N2 gas, 180 min): 0.161 OD600; Growth expressed as OD600 ([1]; N2 gas, 360 min): 0.560 OD600; Growth expressed as OD600 ([1]; N2 gas, 660 min): 3.930 OD600; Growth expressed as OD600 ([1]; N2 gas, 23 h): 3.700 OD600; Growth of single strains [2]: able to grow very well; Growth expressed as OD600 ([3]; CO2 gas, with 2'FL C source (+), 30 min): 0.072 OD600; Growth expressed as OD600 ([3]; CO2 gas, with 2'FL C source (+), 240 min): 0.298 OD600; Growth expressed as OD600 ([3]; CO2 gas, with 2'FL C source (+), 360 min): 0.880 OD600; Growth expressed as OD600 ([3]; CO2 gas, with 2'FL C source (+), 540 min): 2.070 OD600; Growth expressed as OD600 ([3]; CO2 gas, with 2'FL C source (+), 24 h): 3.060 OD600; Growth expressed as OD600 ([3]; CO2 gas, without 2'FL C source (−), 30 min): 0.071 OD600; Growth expressed as OD600 ([3]; CO2 gas, without 2'FL C source (−), 240 min): 0.203 OD600; Growth expressed as OD600 ([3]; CO2 gas, without 2'FL C source (−), 360 min): 0.191 OD600; Growth expressed as OD600 ([3]; CO2 gas, without 2'FL C source (−), 540 min): 0.191 OD600; Growth expressed as OD600 ([3]; CO2 gas, without 2'FL C source (−), 24 h): 0.187 OD600; Growth expressed as OD600 ([3]; N2 gas, with 2'FL C source (+), 30 min): 0.079 OD600; Growth expressed as OD600 ([3]; N2 gas, with 2'FL C source (+), 240 min): 0.154 OD600; Growth expressed as OD600 ([3]; N2 gas, with 2'FL C source (+), 360 min): 0.350 OD600; Growth expressed as OD600 ([3]; N2 gas, with 2'FL C source (+), 540 min): 0.600 OD600; Growth expressed as OD600 ([3]; N2 gas, with 2'FL C source (+), 24 h): 1.320 OD600; Growth expressed as OD600 ([3]; N2 gas, without 2'FL C source (−), 30 min): 0.068 OD600; Growth expressed as OD600 ([3]; N2 gas, without 2'FL C source (−), 240 min): 0.175 OD600; Growth expressed as OD600 ([3]; N2 gas, without 2'FL C source (−), 360 min): 0.179 OD600; Growth expressed as OD600 ([3]; N2 gas, without 2'FL C source (−), 540 min): 0.163 OD600; Growth expressed as OD600 ([3]; N2 gas, without 2'FL C source (−), 24 h): 0.157 OD600; Growth expressed as OD600 ([4]; CO2 gas, 50 mM urea, 15 min): 0.079 OD600; Growth expressed as OD600 ([4]; CO2 gas, 50 mM urea, 135 min): 0.161 OD600; Growth expressed as OD600 ([4]; CO2 gas, 50 mM urea, 270 min): 0.670 OD600; Growth expressed as OD600 ([4]; CO2 gas, 50 mM urea, 445 min): 2.610 OD600; Growth expressed as OD600 ([4]; CO2 gas, 50 mM urea, 625 min): 6.500 OD600; Growth expressed as OD600 ([4]; CO2 gas, 50 mM urea, 24 h): 6.5 OD600; Growth expressed as OD600 ([4]; N2 gas, 10 mM urea, 15 min): 0.084 OD600; Growth expressed as OD600 ([4]; N2 gas, 10 mM urea, 135 min): 0.137 OD600; Growth expressed as OD600 ([4]; N2 gas, 10 mM urea, 270 min): 0.390 OD600; Growth expressed as OD600 ([4]; N2 gas, 10 mM urea, 445 min): 1.280 OD600; Growth expressed as OD600 ([4]; N2 gas, 10 mM urea, 625 min): 3.900 OD600; Growth expressed as OD600 ([4]; N2 gas, 10 mM urea, 24 h): 3.720 OD600; Growth expressed as OD600 ([4]; N2 gas, 50 mM urea, 15 min): 0.082 OD600; Growth expressed as OD600 ([4]; N2 gas, 50 mM urea, 135 min): 0.140 OD600; Growth expressed as OD600 ([4]; N2 gas, 50 mM urea, 270 min): 0.450 OD600; Growth expressed as OD600 ([4]; N2 gas, 50 mM urea, 445 min): 1.260 OD600; Growth expressed as OD600 ([4]; N2 gas, 50 mM urea, 625 min): 2.970 OD600; Growth expressed as OD600 ([4]; N2 gas, 50 mM urea, 24 h): 2.850 OD600; Growth expressed as OD600 ([4]; N2 gas, 100 mM urea, 15 min): 0.079 OD600; Growth expressed as OD600 ([4]; N2 gas, 100 mM urea, 135 min): 0.144 OD600; Growth expressed as OD600 ([4]; N2 gas, 100 mM urea, 270 min): 0.430 OD600; Growth expressed as OD600 ([4]; N2 gas, 100 mM urea, 445 min): 1.130 OD600; Growth expressed as OD600 ([4]; N2 gas, 100 mM urea, 625 min): 2.800 OD600; Growth expressed as OD600 ([4]; N2 gas, 100 mM urea, 24 h): 2.520 OD600; Growth expressed as OD600 ([5]; CO2 gas, 60 min): 0.062 OD600; Growth expressed as OD600 ([5]; CO2 gas, 180 min): 0.083 OD600; Growth expressed as OD600 ([5]; CO2 gas, 360 min): 0.211 OD600; Growth expressed as OD600 ([5]; CO2 gas, 660 min): 1.560 OD600; Growth expressed as OD600 ([5]; CO2 gas, 23 h): 2.250 OD600; Growth expressed as OD600 ([5]; N2 gas, 60 min): 0.051 OD600; Growth expressed as OD600 ([5]; N2 gas, 180 min): 0.061 OD600; Growth expressed as OD600 ([5]; N2 gas, 360 min): 0.072 OD600; Growth expressed as OD600 ([5]; N2 gas, 660 min): 0.054 OD600; Growth expressed as OD600 ([5]; N2 gas, 23 h): 0.046 OD600; Growth expressed as OD600 ([6]; 15 min): 0.074 OD600; Growth expressed as OD600 ([6]; 135 min): 0.125 OD600; Growth expressed as OD600 ([6]; 270 min): 0.280 OD600; Growth expressed as OD600 ([6]; 445 min): 0.460 OD600; Growth expressed as OD600 ([6]; 625 min): 0.590 OD600; Growth expressed as OD600 ([6]; 24 h): 1.020 OD600
